Assay [1] concerns A549 cells. In words: Prodrug safety dose-response cell viability (PrestoBlue), A549. The assay is classed as cell-based. To be noted: Homo sapiens, 120 h, 5 days, no catalyst. On the procedure: (§1) These cell lines were selected as these are primary malignancies against which the parental drugs are currently prescribed.
(§2) The toxicities of each active agent and prodrugs were compared by performing dose-response studies. […] Cell viability was analysed by fluoresce intensity (λex=540 nm; λem=590 nm) after 60-90 min incubation with PrestoBlue™ Reagent (Life Technologies).

For another assay, the system named is U87G cells. In words: Prodrug safety dose-response cell viability (PrestoBlue), U87G. The format is cell-based, human. To be noted: Homo sapiens, 120 h; U87G cells, 5 days, no catalyst; read-out: EC50 (cell viability). On the procedure:
as §1, §2

For assay [2], the system named is T98 cells. In words: Prodrug safety dose-response cell viability (PrestoBlue), T98. The format is cell-based. Particulars: Homo sapiens, 120 h, 5 days, no catalyst. On the procedure: as §1, §2
Assay [3] concerns A549 cells. In words: BOOM conversion: prodrug + metal resins in cell culture, cell viability, A549. The assay is classed as cell-based, human. On the procedure: Cell viabilities for each prodrug provided as a combination with palladium is presented in FIG. 3 and gold is presented in FIG. 33 in the right of each set of two bars. […] Cells were incubated in tissue culture media containing 0.1% (v/v) DMSO and: Pd^0, Au, or Pd/Au-resins (1 mg/mL, negative control); 100 μM of each prodrug (negative control); and Pd^0, Au, or Pd/Au-resins (1 mg/mL)+100 μM of each prodrug (BOOM reaction assay). Cells incubated in 0.1% (v/v) DMSO in media were used as untreated cell control.
(§3) Following 5 days treatment, cells were incubated with PrestoBlue™ Cell Viability Reagent (Life Technologies) for 60-90 min. Fluorescence intensity values were related to the untreated cells (100% cell viability). […] Cells incubated in 0.1% (v/v) DMSO in media were used as untreated cell control.
(§4) Cell viabilities for each prodrug provided as a combination with palladium is presented in FIG. 7 in the right of each set of two bars. Data for prodrug in the absence of palladium catalyst is also provided (the left bar of each set of two bars) for comparison along with negative controls (from left to right: DMSO, Pd^0 and Doxorubicin). Cells were incubated in tissue culture media containing 0.1% (v/v) DMSO and: Pd^0-resins (1 mg/mL, negative control); 1 μM of each prodrug (negative control); and Pd^0-resins (1 mg/mL)+1 μM of each prodrug (BOOM reaction assay). Cells incubated in 0.1% (v/v) DMSO in media were used as untreated cell control.
(§5) Following 5 days treatment, cells were incubated with PrestoBlue™ Cell Viability Reagent (Life Technologies) for 90 min. Fluorescence intensity values were related to the untreated cells (100% cell viability). Data are provided in FIG. 8 for cells incubated in tissue culture media containing 0.1% (v/v) DMSO and: Pd^0-resins (1 mg/mL, negative control); 0.3-3 μM of Doxorubicin prodrug for A549 and DU145 cell lines, 0.1-1 μM of Doxorubicin prodrug for T98 cell line (negative control); 0.3-3 μM of Doxorubicin for A549 and DU145 cell lines, 0.1-1 μM of Doxorubicin for T98 cell line (positive control); and Pd^0-resin (1 mg/mL)+Doxorubicin prodrug (BOOM reaction assay). Cells incubated in 0.1% (v/v) DMSO in media were used as untreated cell control.
as §4, with “21” for “7”, “panobinostat).” for “Doxorubicin).”
(§6) The toxigenic effect as a result of in situ generation of parental drug in cell culture was determined by incubating all cells in tissue culture media containing 0.1% (v/v) DMSO and a) Pd^0, Au, or Pd/Au-resin (1 mg/mL for all cells tested, negative control); b) prodrug (negative control); or c) Pd^0, Au, or Pd/Au-resin (1 mg/mL for all cells)+prodrug (reaction assay). Cells incubated in 0.1% (v/v) DMSO in media was used as an untreated cell reference standard (100% viability). A PrestoBlue® cell viability assay as described above was carried out and fluorescent intensities compared to the untreated cell control.
(§7) A dose response study was performed for each cell line keeping the quantity of Pd^0 resin constant (0.8 mg/mL for U87G and 1 mg/mL for the rest of cell lines). All cells were plated in Dulbecco's Modified Eagle Media (DMEM) supplemented with serum (10% FBS) and L-glutamine (2 mM). […]

For assay [4], the system named is T98 cells. In words: BOOM conversion: prodrug + Pd0-resins in cell culture, cell viability, T98. The format is cell-based, human. To be noted: Homo sapiens, 120 h, prodrug in combination with Pd0-resins 1 mg/mL, 5 days, read-out: EC50, prodrug + Pd-resins. On the procedure: as §3, §4, §5, §6, §7

Bounds are passed on as bounds.

On to `C#CCOc1ccc(CONC(=O)CCCCCCC(=O)Nc2ccccc2)cc1` [POB-Vor, Propargyloxybenzyl-Vorinostat], for which the EC50 in the assay on A549 cells [1] is more than 500 µM; in the assay on U87G cells, more than 500 µM; in the assay with T98 cells [2], more than 500 µM; in the assay on A549 cells [3] (Homo sapiens, 120 h, prodrug in combination with Pd0-resins 1 mg/mL, 5 days, read-out: EC50, prodrug + Pd-resins) it was 10.5 µM; in the assay on T98 cells [4], 16.8 µM. Besides, the “toxigenic effect of prodrug + Au resins” value in the assay on A549 cells [3] (Au resins 1 mg/mL, prodrug 100 μM) is “strong toxigenic effect”. Also, the “toxigenic effect of prodrug + Pd0 resins” value with A549 cells [3] (Pd0-resin 1 mg/mL, 100 μM Vorinostat prodrugs, 1 μM Doxorubicin prodrugs, 0.3 μM Panobinostat prodrug) is “strong toxigenic effect”. The “toxigenic effect of prodrug + Pd/Au resins” value with A549 cells [3] (Pd/Au resins 1 mg/mL, prodrug 100 μM) is reported as “strong toxigenic effect”.

Usually EC50 stands for the concentration that produces a half-maximal response.
